Laboratory results reported in patent US20250361543A1, “Instrumentation for Rapid Antimicrobial Susceptibility Testing from Bodily Fluids and Cultures” (Georgia Tech Research Corporation, priority 2022, published 2025).
Values after ≈ are worked out from the molar mass of the structure shown. Like-named read-outs stand apart in the source and are kept apart here.

Tested on: Escherichia coli
Test: Plate reader antimicrobial susceptibility test (MIC) directly from positive blood culture
Assay type: cell-based
Details: for MIC: Escherichia coli
Description: The tests can also provide a low labor cost. Disclosed in this example are systems and methods for performing ASTs directly from positive blood cultures. De-identified hospital patient positive blood cultures were received within 8 hours of being flagged positive. ASTs were performed using various antimicrobial agents, namely seven antibiotics (ceftazidime, meropenem, tobramycin, levofloxacin, cefepime, gentamicin, and amikacin). The positive blood cultures were diluted 250-fold in cation-adjusted Mueller-Hinton Broth (CAMHB) media and 100 μL of this diluted sample was dispensed into each well of a 96-well microtiter plate, already containing 100 μL of varying concentration of one antibiotic. […] The sample-filled 96-well plate was sealed by sterile plastic film and incubated in a microtiter plate reader at 37° C. A temperature gradient of 0.5° C. was selected to prevent condensation on cover film. Each well was scanned every one hour from 400 to 895 nm with a 5 nm step starting from the time of incubation (0 hours) resulting in a total of nineteen spectra per well.
Relating to data analysis-spectra (400 to 895 nm) vs time were acquired from each well. Spectral principal components (PCs) were computed for all wells at each time point and those explaining at least 90% of the variance were calculated. […] Determining the lowest concentration for each antibiotic that inhibited growth based on these spectral overlaps determined the MIC for each antibiotic used.
The antibiotics concentrations are as in the plate layout and growth is measures as absorption at each excitation wavelength compares with the positive controls. Dark red indicates growth while bright red indicates no growth.

[1] = 6 hours incubation at 37° C, positive blood culture diluted 500-fold in CAMHB, assay of FIG. 4, read-out: MIC (6 hours)
[2] = 8 hours incubation at 37° C, positive blood culture diluted 500-fold in CAMHB, assay of FIG. 4, read-out: MIC (8 hours)
[3] = 10 hours incubation at 37° C, positive blood culture diluted 500-fold in CAMHB, assay of FIG. 4, read-out: MIC (10 hours)
[4] = 18 hours incubation at 37° C, positive blood culture diluted 500-fold in CAMHB, assay of FIG. 4, read-out: MIC (18 hours)

## NCC[C@H](O)C(=O)N[C@@H]1C[C@H](N)[C@@H](O[C@H]2O[C@H](CN)[C@@H](O)[C@H](O)[C@H]2O)[C@H](O)[C@H]1O[C@H]1O[C@H](CO)[C@@H](O)[C@H](N)[C@H]1O [Amikacin, amikacin]
[1]
  MIC: 2 µg/mL (≈ 3.42 µM)
[2]
  MIC: 2 µg/mL (≈ 3.42 µM)
[3]
  MIC: 2 µg/mL (≈ 3.42 µM)
[4]
  MIC: 2 µg/mL (≈ 3.42 µM)

## CO/N=C(\C(=O)N[C@@H]1C(=O)N2C(C(=O)[O-])=C(C[N+]3(C)CCCC3)CS[C@H]12)c1csc(N)n1 [Cefepime, cefepime]
6 h, read-out: MIC (6 hours)
  MIC: ≤ 0.0312 µg/mL
8 h, read-out: MIC (8 hours)
  MIC: ≤ 0.0312 µg/mL
10 h, read-out: MIC (10 hours)
  MIC: ≤ 0.0312 µg/mL
18 h, read-out: MIC (18 hours)
  MIC: ≤ 0.0312 µg/mL

## CC(C)(O/N=C(\C(=O)N[C@@H]1C(=O)N2C(C(=O)[O-])=C(C[n+]3ccccc3)CS[C@H]12)c1csc(N)n1)C(=O)O [Ceftazidime, ceftazidime]
[1]
  MIC: 0.0625 µg/mL (≈ 0.114 µM)
[2]
  MIC: 0.0625 µg/mL (≈ 0.114 µM)
[3]
  MIC: 0.0625 µg/mL (≈ 0.114 µM)
[4]
  MIC: 0.0625 µg/mL (≈ 0.114 µM)

## C[C@H]1COc2c(N3CCN(C)CC3)c(F)cc3c(=O)c(C(=O)O)cn1c23 [Levofloxacin, levofloxacin]
[1]
  MIC: ≤ 0.0312 µg/mL
[2]
  MIC: ≤ 0.0312 µg/mL
[3]
  MIC: ≤ 0.0312 µg/mL
[4]
  MIC: ≤ 0.0312 µg/mL

## C[C@@H](O)[C@H]1C(=O)N2C(C(=O)O)=C(S[C@@H]3CN[C@H](C(=O)N(C)C)C3)[C@H](C)[C@H]12 [Meropenem, meropenem]
[1]
  MIC: ≤ 0.0312 µg/mL
[2]
  MIC: ≤ 0.0312 µg/mL
[3]
  MIC: ≤ 0.0312 µg/mL
[4]
  MIC: ≤ 0.0312 µg/mL

## NC[C@H]1O[C@H](O[C@H]2[C@H](O)[C@@H](O[C@H]3O[C@H](CO)[C@@H](O)[C@H](N)[C@H]3O)[C@H](N)C[C@@H]2N)[C@H](N)C[C@@H]1O [Tobramycin, tobramycin]
[1]
  MIC: 1 µg/mL (≈ 2.14 µM)
[2]
  MIC: 1 µg/mL (≈ 2.14 µM)
[3]
  MIC: 1 µg/mL (≈ 2.14 µM)
[4]
  MIC: 1 µg/mL (≈ 2.14 µM)

## gentamicin
6 hours incubation at 37° C, positive blood culture diluted 500-fold in CAMHB, assay of FIG. 4
  MIC (6 hours): 1 µg/mL
8 hours incubation at 37° C, positive blood culture diluted 500-fold in CAMHB, assay of FIG. 4
  MIC (8 hours): 1 µg/mL
10 hours incubation at 37° C, positive blood culture diluted 500-fold in CAMHB, assay of FIG. 4
  MIC (10 hours): 1 µg/mL
18 hours incubation at 37° C, positive blood culture diluted 500-fold in CAMHB, assay of FIG. 4
  MIC (18 hours): 1 µg/mL
